Results: ChEMBL document CHEMBL3885881, “DrugMatrix”

Organism: Rattus norvegicus
Assay: DrugMatrix - Regimen: Daily Repeat
Type: toxicity, organism-based, Sprague-Dawley
Parameters: regimen Daily Repeat, gender Male, age 6-8 weeks
Details: in vivo, po, route oral GAVAGE, vehicle 100 % WATER; for ABSOLUTE BASOPHIL / ABSOLUTE EOSINOPHIL / ABSOLUTE LYMPHOCYTE / ABSOLUTE MONOCYTE / ABSOLUTE SEGMENTED NEUTROPHIL / BASOPHIL / EOSINOPHIL / ERYTHROCYTE COUNT / HEMATOCRIT / HEMOGLOBIN / LEUKOCYTE COUNT / LYMPHOCYTE / MEAN CORPUSCULAR HEMOGLOBIN / MEAN CORPUSCULAR HEMOGLOBIN CONCENTRATION / MEAN CORPUSCULAR VOLUME / MONOCYTE / NEUTROPHIL / NUCLEATED RED BLOOD CELLS / PLATELET COUNT: tissue Blood; for ALANINE AMINOTRANSFERASE / ALBUMIN / ALKALINE PHOSPHATASE / ASPARTATE AMINOTRANSFERASE / BLOOD UREA NITROGEN / CARBON DIOXIDE / CHLORIDE / CHOLESTEROL / CREATINE PHOSPHOKINASE / CREATININE / GLUCOSE / LACTATE DEHYDROGENASE / LIPASE / PHOSPHORUS / POTASSIUM / SODIUM / TOTAL BILIRUBIN / TOTAL PROTEIN / URIC ACID: tissue Plasma
[1] = 20 mg/kg, 72 h, dose level Low, time 3 day
[2] = 20 mg/kg, 120 h, dose level Low, time 5 day
[3] = 688 mg/kg, 72 h, dose level High, time 3 day
[4] = 688 mg/kg, 120 h, dose level High, time 5 day

## COc1ccc(CN(CCN(C)C)c2ccccn2)cc1 [PYRILAMINE]
[1]
  ABSOLUTE BASOPHIL: 0 CELLS/uL
  ABSOLUTE EOSINOPHIL: 0 CELLS/uL
  ABSOLUTE LYMPHOCYTE: 6764.67 CELLS/uL
  ABSOLUTE MONOCYTE: 0 CELLS/uL
  ABSOLUTE SEGMENTED NEUTROPHIL: 435.33 CELLS/uL
  BASOPHIL: 0%
  EOSINOPHIL: 0%
  ERYTHROCYTE COUNT: 5.22 x10E6/uL
  HEMATOCRIT: 33.7%
  HEMOGLOBIN: 13.67 G/DL
  LEUKOCYTE COUNT: 7.2 x10E3/uL
  LYMPHOCYTE: 93.67%
  MEAN CORPUSCULAR HEMOGLOBIN: 26.2 pg
  MEAN CORPUSCULAR HEMOGLOBIN CONCENTRATION: 40.57 G/DL
  MEAN CORPUSCULAR VOLUME: 64.53 fL
  MONOCYTE: 0%
  NEUTROPHIL: 6.33%
  NUCLEATED RED BLOOD CELLS: 0 /100WBC
  PLATELET COUNT: 1037.67 x10E3/uL
  ALANINE AMINOTRANSFERASE: 45.67 u/L
  ALBUMIN: 4.37 G/DL
  ALKALINE PHOSPHATASE: 340.33 u/L
  ASPARTATE AMINOTRANSFERASE: 91.33 u/L
  BLOOD UREA NITROGEN: 16.67 mg/dL
  CARBON DIOXIDE: 33.67 mmol/L
  CHLORIDE: 98.33 MEQ/L
  CHOLESTEROL: 83 mg/dL
  CREATINE PHOSPHOKINASE: 408.33 u/L
  CREATININE: 0.23 mg/dL
  GLUCOSE: 112.67 mg/dL
  LACTATE DEHYDROGENASE: 148.67 u/L
  LIPASE: 10.33 u/L
  PHOSPHORUS: 11.07 mg/dL
  POTASSIUM: 6.81 MEQ/L
  SODIUM: 145.13 MEQ/L
  TOTAL BILIRUBIN: 0.2 mg/dL
  TOTAL PROTEIN: 6.37 G/DL
  URIC ACID: 0.83 mg/dL
[2]
  ABSOLUTE BASOPHIL: 0 CELLS/uL
  ABSOLUTE EOSINOPHIL: 0 CELLS/uL
  ABSOLUTE LYMPHOCYTE: 14373.33 CELLS/uL
  ABSOLUTE MONOCYTE: 89.33 CELLS/uL
  ABSOLUTE SEGMENTED NEUTROPHIL: 1937.33 CELLS/uL
  BASOPHIL: 0%
  EOSINOPHIL: 0%
  ERYTHROCYTE COUNT: 5.38 x10E6/uL
  HEMATOCRIT: 33.67%
  HEMOGLOBIN: 13.67 G/DL
  LEUKOCYTE COUNT: 16.4 x10E3/uL
  LYMPHOCYTE: 88.33%
  MEAN CORPUSCULAR HEMOGLOBIN: 25.47 pg
  MEAN CORPUSCULAR HEMOGLOBIN CONCENTRATION: 40.63 G/DL
  MEAN CORPUSCULAR VOLUME: 62.73 fL
  MONOCYTE: 0.67%
  NEUTROPHIL: 11%
  NUCLEATED RED BLOOD CELLS: 0 /100WBC
  PLATELET COUNT: 1183.67 x10E3/uL
  ALANINE AMINOTRANSFERASE: 53.33 u/L
  ALBUMIN: 4.13 G/DL
  ALKALINE PHOSPHATASE: 437.33 u/L
  ASPARTATE AMINOTRANSFERASE: 80.67 u/L
  BLOOD UREA NITROGEN: 17 mg/dL
  CARBON DIOXIDE: 28.67 mmol/L
  CHLORIDE: 104.67 MEQ/L
  CHOLESTEROL: 64.33 mg/dL
  CREATINE PHOSPHOKINASE: 242 u/L
  CREATININE: 0.17 mg/dL
  GLUCOSE: 160 mg/dL
  LACTATE DEHYDROGENASE: 86.33 u/L
  LIPASE: 8.67 u/L
  PHOSPHORUS: 14.2 mg/dL
  POTASSIUM: 6.63 MEQ/L
  SODIUM: 147.07 MEQ/L
  TOTAL BILIRUBIN: 0.17 mg/dL
  TOTAL PROTEIN: 6 G/DL
  URIC ACID: 1.7 mg/dL
[3]
  ABSOLUTE BASOPHIL: 0 CELLS/uL
  ABSOLUTE EOSINOPHIL: 0 CELLS/uL
  ABSOLUTE LYMPHOCYTE: 13165.67 CELLS/uL
  ABSOLUTE MONOCYTE: 0 CELLS/uL
  ABSOLUTE SEGMENTED NEUTROPHIL: 1201 CELLS/uL
  BASOPHIL: 0%
  EOSINOPHIL: 0%
  ERYTHROCYTE COUNT: 5.73 x10E6/uL
  HEMATOCRIT: 34.93%
  HEMOGLOBIN: 14.1 G/DL
  LEUKOCYTE COUNT: 14.37 x10E3/uL
  LYMPHOCYTE: 91.67%
  MEAN CORPUSCULAR HEMOGLOBIN: 24.63 pg
  MEAN CORPUSCULAR HEMOGLOBIN CONCENTRATION: 40.37 G/DL
  MEAN CORPUSCULAR VOLUME: 61.07 fL
  MONOCYTE: 0%
  NEUTROPHIL: 8.33%
  NUCLEATED RED BLOOD CELLS: 0 /100WBC
  PLATELET COUNT: 1288.33 x10E3/uL
  ALANINE AMINOTRANSFERASE: 50.67 u/L
  ALBUMIN: 4.27 G/DL
  ALKALINE PHOSPHATASE: 466 u/L
  ASPARTATE AMINOTRANSFERASE: 87.67 u/L
  BLOOD UREA NITROGEN: 12.33 mg/dL
  CARBON DIOXIDE: 34 mmol/L
  CHLORIDE: 100.67 MEQ/L
  CHOLESTEROL: 65.67 mg/dL
  CREATINE PHOSPHOKINASE: 183.33 u/L
  CREATININE: 0.13 mg/dL
  GLUCOSE: 155.33 mg/dL
  LACTATE DEHYDROGENASE: 142 u/L
  LIPASE: 9 u/L
  PHOSPHORUS: 13.33 mg/dL
  POTASSIUM: 6.65 MEQ/L
  SODIUM: 145.23 MEQ/L
  TOTAL BILIRUBIN: 0.1 mg/dL
  TOTAL PROTEIN: 5.8 G/DL
  URIC ACID: 1.7 mg/dL
[4]
  ABSOLUTE BASOPHIL: 0 CELLS/uL
  ABSOLUTE EOSINOPHIL: 82 CELLS/uL
  ABSOLUTE LYMPHOCYTE: 13712.5 CELLS/uL
  ABSOLUTE MONOCYTE: 237 CELLS/uL
  ABSOLUTE SEGMENTED NEUTROPHIL: 1918.5 CELLS/uL
  BASOPHIL: 0%
  EOSINOPHIL: 0.5%
  ERYTHROCYTE COUNT: 6.11 x10E6/uL
  HEMATOCRIT: 37.55%
  HEMOGLOBIN: 14.85 G/DL
  LEUKOCYTE COUNT: 15.95 x10E3/uL
  LYMPHOCYTE: 86%
  MEAN CORPUSCULAR HEMOGLOBIN: 24.3 pg
  MEAN CORPUSCULAR HEMOGLOBIN CONCENTRATION: 39.6 G/DL
  MEAN CORPUSCULAR VOLUME: 61.35 fL
  MONOCYTE: 1.5%
  NEUTROPHIL: 12%
  NUCLEATED RED BLOOD CELLS: 0 /100WBC
  PLATELET COUNT: 1201.5 x10E3/uL
  ALANINE AMINOTRANSFERASE: 60.5 u/L
  ALBUMIN: 4.45 G/DL
  ALKALINE PHOSPHATASE: 346.5 u/L
  ASPARTATE AMINOTRANSFERASE: 96 u/L
  BLOOD UREA NITROGEN: 14.5 mg/dL
  CARBON DIOXIDE: 35.5 mmol/L
  CHLORIDE: 99 MEQ/L
  CHOLESTEROL: 60 mg/dL
  CREATINE PHOSPHOKINASE: 292 u/L
  CREATININE: 0.24 mg/dL
  GLUCOSE: 142 mg/dL
  LACTATE DEHYDROGENASE: 333.5 u/L
  LIPASE: 11 u/L
  PHOSPHORUS: 13.2 mg/dL
  POTASSIUM: 6.7 MEQ/L
  SODIUM: 146.5 MEQ/L
  TOTAL BILIRUBIN: 0.15 mg/dL
  TOTAL PROTEIN: 6 G/DL
  URIC ACID: 2 mg/dL
